This assay addresses T1, human CaV3.2 (Homo sapiens, UniProt O95180).
T1 construct: expressed in transfected cells
Nature of the assay: IonWorks screen for hCaV3.2 (T-type calcium current, voltage clamp). The format is cell-based. The following applies: IonWorks HT, HEK cells, 10 min incubation, pulse 10, 8-point curve; read-out: IW hCav3 2 IC50. The source says:
Functional evaluation of voltage-gated ion channels can be used to determine potency and/or single concentration efficacy of the Azetidinone Derivatives of the present invention. Two different methodologies can be used to measure ion currents: the lonWorks HT (Molecular Devices, Sunnyvale, Calif.) a moderate throughput voltage clamp screening platform that utilizes 96-well compound plates and conventional whole cell patch clamp for lower throughput, higher fidelity determinations.
HEK cells are transiently transfected and then selected for stable heterologous expression of different channel proteins of interest. Calcium channel cell lines expressed a resting potassium current, human Kir2.1, and the pore forming α-subunit of voltage-gated calcium channels. In the case of CaV2.1 cells the auxiliary subunit, β2a, is also expressed. Calcium channel lines that are used to generate the data will express either human CaV3.2, rat CaV3.2 or human CaV2.1. The human heart sodium channel, hNaV1.5, are stably expressed in CHO cells.
Cell lines can be grown at 37° C. in humidified incubators, equilibrated with 95% air/5% CO2. CHO cells can be grown in Ham's F-12 medium. HEK cells can be grown in DMEM. All media are supplemented with 10% heat-inactivated fetal bovine serum, penicillin, streptomycin and appropriate selection antibiotics (zeocin, geneticin and/or hygromycin). Cells are passaged when 80% confluent or less.
IonWorks Screen for hCaV3.2
The extracellular buffer for experiments using this instrument contained the following (mM) (NaCl 125, HEPES 10, KCl 5.4, CaCl2 1.8, MgCl2 1.8, 0.2 BaCl2 pH 7.35). The lonWorks uses amphotericin to gain electrical access to the cell interior. The internal solution contained (mM concentrations): 130 K-gluconate, 20 KCl, 5 HEPES-KOH (pH 7.25), 2 CaCl2, 1 MgCl2. Amphotericin added at 5 mg in 65 mL when present (in 650 μL DMSO). All internal and external solutions for this experiment contain 1% DMSO. Cells were acutely trypsinized from a T-75 flask and resuspended in extracellular buffer at a density of 2×10^5 cells/mL.
Experiments were performed at room temperature. Transmembrane potential was held at −100 mV for 5 seconds prior to running the voltage protocol. During this time leak currents were measured during a step to −110 mV (200 milliseconds). T-type calcium currents were activated with a 250 millisecond step to −20 mV. This depolarization step was repeated for a total of 10 pulses with an interpulse interval of 1 second. Data were excluded if the following acceptance criteria were not met: total resistance for the pre-compound scan>65 MΩ, pre-compound current>250 pA, post compound total resistance>50 MΩ.
T-type currents were measured as the peak inward current minus the current at the end of the 250 msec step to −20 mV. After the recoding configuration was established there was a pre-compound measurement of current amplitude. Compound was added as a 3× solution containing 1% DMSO. After incubation with compound for 10 minutes currents were measured again. The current amplitude after compound addition was divided by the pre-compound current for pulse 10 to determine the fraction of current remaining after compound addition. For each compound, 8-point concentration-effect relationships were measured with ½ log serial dilutions.
T1 sequence (O95180 whole entry): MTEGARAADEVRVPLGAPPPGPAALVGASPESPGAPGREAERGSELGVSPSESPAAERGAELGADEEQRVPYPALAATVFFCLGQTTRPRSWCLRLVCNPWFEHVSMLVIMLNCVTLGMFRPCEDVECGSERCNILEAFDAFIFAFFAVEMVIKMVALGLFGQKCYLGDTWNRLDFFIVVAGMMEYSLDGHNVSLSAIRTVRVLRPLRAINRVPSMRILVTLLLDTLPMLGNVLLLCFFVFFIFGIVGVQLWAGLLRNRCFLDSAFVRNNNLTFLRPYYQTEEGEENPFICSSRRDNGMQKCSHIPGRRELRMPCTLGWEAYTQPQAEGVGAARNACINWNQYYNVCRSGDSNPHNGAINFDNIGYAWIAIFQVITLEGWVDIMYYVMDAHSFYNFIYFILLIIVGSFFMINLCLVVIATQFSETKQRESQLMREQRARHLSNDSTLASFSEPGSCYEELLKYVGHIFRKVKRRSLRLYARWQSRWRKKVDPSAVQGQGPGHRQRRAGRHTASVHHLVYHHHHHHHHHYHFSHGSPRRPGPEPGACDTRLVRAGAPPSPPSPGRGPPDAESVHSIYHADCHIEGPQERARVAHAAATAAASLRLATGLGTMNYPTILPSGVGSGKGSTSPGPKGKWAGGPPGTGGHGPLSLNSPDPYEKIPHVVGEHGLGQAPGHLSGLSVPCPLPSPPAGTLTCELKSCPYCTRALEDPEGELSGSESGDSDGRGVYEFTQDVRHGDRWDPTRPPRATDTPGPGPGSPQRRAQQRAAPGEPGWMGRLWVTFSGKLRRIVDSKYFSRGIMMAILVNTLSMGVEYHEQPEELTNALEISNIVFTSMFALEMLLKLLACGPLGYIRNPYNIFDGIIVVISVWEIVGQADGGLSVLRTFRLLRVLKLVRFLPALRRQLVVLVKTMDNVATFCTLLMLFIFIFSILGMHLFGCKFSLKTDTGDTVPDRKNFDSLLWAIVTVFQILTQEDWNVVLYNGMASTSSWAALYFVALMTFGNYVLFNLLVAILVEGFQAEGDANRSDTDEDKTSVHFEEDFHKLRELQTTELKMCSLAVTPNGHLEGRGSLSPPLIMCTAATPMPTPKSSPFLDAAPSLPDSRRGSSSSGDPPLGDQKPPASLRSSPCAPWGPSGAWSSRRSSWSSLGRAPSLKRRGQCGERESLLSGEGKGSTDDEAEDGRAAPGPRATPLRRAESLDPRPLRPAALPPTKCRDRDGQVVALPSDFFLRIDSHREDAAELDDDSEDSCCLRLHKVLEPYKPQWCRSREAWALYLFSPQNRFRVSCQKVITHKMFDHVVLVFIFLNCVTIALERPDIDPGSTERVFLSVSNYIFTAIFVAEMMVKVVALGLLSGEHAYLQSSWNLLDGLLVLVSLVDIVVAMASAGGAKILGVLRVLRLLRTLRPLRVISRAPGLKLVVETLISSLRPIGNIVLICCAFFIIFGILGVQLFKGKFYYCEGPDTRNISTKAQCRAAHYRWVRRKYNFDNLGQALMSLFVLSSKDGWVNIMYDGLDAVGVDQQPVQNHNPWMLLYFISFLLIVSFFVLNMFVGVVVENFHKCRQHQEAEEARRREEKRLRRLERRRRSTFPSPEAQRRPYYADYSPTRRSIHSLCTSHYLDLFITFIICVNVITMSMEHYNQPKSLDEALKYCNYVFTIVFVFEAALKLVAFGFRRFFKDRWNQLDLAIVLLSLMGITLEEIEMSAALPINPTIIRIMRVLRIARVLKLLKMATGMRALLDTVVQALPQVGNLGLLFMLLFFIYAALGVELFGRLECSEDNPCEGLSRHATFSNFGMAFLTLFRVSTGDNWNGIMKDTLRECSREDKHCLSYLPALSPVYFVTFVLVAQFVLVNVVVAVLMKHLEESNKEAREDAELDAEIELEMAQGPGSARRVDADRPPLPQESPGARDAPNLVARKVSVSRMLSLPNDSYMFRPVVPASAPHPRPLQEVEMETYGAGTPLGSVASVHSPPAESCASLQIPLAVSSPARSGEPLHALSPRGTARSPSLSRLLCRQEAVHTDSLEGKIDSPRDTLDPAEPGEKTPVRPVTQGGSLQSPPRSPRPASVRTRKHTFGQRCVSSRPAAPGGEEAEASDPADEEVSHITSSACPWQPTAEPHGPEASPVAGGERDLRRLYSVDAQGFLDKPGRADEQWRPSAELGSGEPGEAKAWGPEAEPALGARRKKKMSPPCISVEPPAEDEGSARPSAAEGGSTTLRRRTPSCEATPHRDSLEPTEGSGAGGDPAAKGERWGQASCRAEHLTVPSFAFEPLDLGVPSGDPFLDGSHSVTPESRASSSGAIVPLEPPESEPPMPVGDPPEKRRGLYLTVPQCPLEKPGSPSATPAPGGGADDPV
As a reminder, the IC50 is the point on the concentration scale where inhibition reaches its midpoint. Turning to `CC[C@H](C)[C@H](NC(=O)N1CCC2(CC1)C(=O)N(C(C)C)C2c1ccc(Br)cc1)C(=O)OC` (some centres unmarked), the IC50 is 277 nM.

On to `CCC(C)[C@H](NC(=O)N1CCC2(CC1)C(=O)N(c1ccc(F)c(Cl)c1)C2c1ccc(Br)cn1)C(=O)OC` (some centres unmarked), for which the IC50 is 100 nM.

Take `CCC(C)[C@H](NC(=O)N1CCC2(CC1)C(=O)N(c1ccc(F)c(Cl)c1)C2c1ccc(-c2cccnc2)cn1)C(=O)OC` (some centres unmarked): the IC50 came to 577 nM.

Consider `CCC(C)[C@H](NC(=O)N1CCC2(CC1)C(=O)N(c1ccc(F)c(Cl)c1)C2c1ccc(-c2ccncc2)cn1)C(=O)OC` (some centres unmarked), for which the IC50 was determined as 634 nM.

Regarding `CCC(C)[C@H](NC(=O)N1CCC2(CC1)C(=O)N(c1ccc(F)c(Cl)c1)C2c1ccc(-c2ccccc2)cn1)C(=O)OC` (some centres unmarked), the IC50 turned out to be 84 nM.

Regarding `C[C@H](NC(=O)N1CCC2(CC1)C(=O)N(c1ccc(F)c(Cl)c1)C2c1ccc(Br)cn1)c1ccc(F)cc1` (some centres unmarked), the IC50 was 136 nM.

With `O=C(Nc1cc(F)cc(F)c1)N1CCC2(CC1)C(=O)N(c1ccc(F)c(Cl)c1)C2c1ccc(Br)cn1` (centres unmarked), the IC50 was 52.5 nM.

With `CCC(C)[C@H](NC(=O)N1CCC2(CC1)C(=O)N(c1ccc(F)c(Cl)c1)C2c1ccc(C#N)cn1)C(=O)OC` (some centres unmarked), the IC50 stood at 260 nM.

In the case of `N#Cc1cncc(N2C(=O)C3(CCN(C(=O)Nc4cccc(C(F)(F)F)c4)CC3)C2c2ccccn2)c1` (centres unmarked), the IC50 is 1260 nM.

`O=C(Nc1cccc(Cl)c1)N1CCC2(CC1)C(=O)N(c1ccc(F)c(Cl)c1)C2c1ccccn1` (centres unmarked): the IC50 was found to be 185 nM.

`O=C(Nc1cc(F)cc(F)c1)N1CCC2(CC1)C(=O)N(c1cccc(Cl)c1)C2c1cccc[n+]1O` (centres unmarked): the IC50 is 157 nM.

Turning to `C[C@H](NC(=O)N1CCC2(CC1)C(=O)N(c1cncc(Cl)c1)C2c1ccccn1)c1ccc(F)cc1` (some centres unmarked), the IC50 worked out at 3240 nM.

As for `N#Cc1cccc(NC(=O)N2CCC3(CC2)C(=O)N(c2ccc(F)c(Cl)c2)C3c2ccccn2)c1` (centres unmarked), the half-inhibitory concentration (IC50) came out at 358 nM.

Turning to `O=C(Nc1cc(F)cc(F)c1)N1CCC2(CC1)C(=O)N(c1cncc(Cl)c1)C2c1ccccn1` (centres unmarked), the IC50 turned out to be 518 nM.

Take `O=C(Nc1cccc(F)c1)N1CCC2(CC1)C(=O)N(c1ccc(F)c(Cl)c1)C2c1ccccn1` (centres unmarked): the IC50 is 371 nM.

Consider `N#Cc1cncc(N2C(=O)C3(CCN(C(=O)Nc4cc(F)cc(F)c4)CC3)C2c2ccccn2)c1` (centres unmarked), for which the IC50 was determined as 2380 nM.

Turning to `N#Cc1cccc(NC(=O)N2CCC3(CC2)C(=O)N(c2cncc(Cl)c2)C3c2ccccn2)c1` (centres unmarked), the IC50 stood at 1480 nM.

In the case of `O=C(Nc1cc(F)cc(F)c1)N1CCC2(CC1)C(=O)N(c1cncc(F)c1)C2c1ccccn1` (centres unmarked), the IC50 was 2100 nM.

As for `CC[C@H](C)[C@H](NC(=O)N1CCC2(CC1)C(=O)N(c1cncnc1)C2c1ccccn1)C(=O)OC` (some centres unmarked), the IC50 stood at 2610 nM.

Regarding `C[C@H](NC(=O)N1CCC2(CC1)C(=O)N(c1cncnc1)C2c1ccccn1)c1ccc(F)cc1` (some centres unmarked), the IC50 was determined as 2010 nM.

For `O=C(Nc1cc(F)cc(F)c1)N1CCC2(CC1)C(=O)N(c1ccccn1)C2c1ccccn1` (centres unmarked), the IC50 worked out at 1160 nM.

`O=C(Nc1cccnc1)N1CCC2(CC1)C(=O)N(c1cccc(Cl)c1)C2c1ccccn1` (centres unmarked): the IC50 was 1120 nM.

Consider `CC[C@H](C)[C@H](NC(=O)N1CCC2(CC1)C(=O)N(c1cccc(F)c1)C2c1ccc(Cl)cc1)C(=O)OC(C)C` (some centres unmarked), for which the IC50 was found to be 45 nM.

As for `C[C@@H](NC(=O)N1CCC2(CC1)C(=O)N(c1cccc(F)c1)C2c1ccc(Cl)cc1)c1ccc(F)cc1` (some centres unmarked), the IC50 amounted to 675 nM.

Consider `COC(=O)[C@H](COC(C)(C)C)NC(=O)N1CCC2(CC1)C(=O)N(c1cccc(F)c1)C2c1ccc(Cl)cc1` (some centres unmarked), for which the IC50 turned out to be 251 nM.

Turning to `CC[C@H](NC(=O)N1CCC2(CC1)C(=O)N(c1cccc(F)c1)C2c1ccc(Cl)cc1)c1ccccc1` (some centres unmarked), the IC50 was 224 nM.

In the case of `C[C@H](NC(=O)N1CCC2(CC1)C(=O)N(c1cccc(F)c1)C2c1ccc(Cl)cc1)c1ccccc1` (some centres unmarked), the IC50 is 139 nM.

Regarding `CC[C@H](C)[C@@H](C#N)NC(=O)N1CCC2(CC1)C(=O)N(c1cccc(F)c1)C2c1ccc(Cl)cc1` (some centres unmarked), the IC50 is 35 nM.

In the case of `O=C(NCc1cccc(F)c1)N1CCC2(CC1)C(=O)N(c1cccc(F)c1)C2c1ccc(Cl)cc1` (centres unmarked), the IC50 was found to be 538 nM.

Take `C[C@@H](NC(=O)N1CCC2(CC1)C(=O)N(c1cccc(F)c1)C2c1ccc(Cl)cc1)c1ccccc1` (some centres unmarked): the IC50 turned out to be 351 nM.

Consider `C[C@H](NC(=O)N1CCC2(CC1)C(=O)N(c1cccc(F)c1)C2c1ccc(Cl)cc1)c1ccc(F)cc1` (some centres unmarked), for which the IC50 amounted to 82 nM.

In the case of `CC(C)CN1C(=O)C2(CCN(C(=O)N[C@@H](C)c3ccc(F)cc3)CC2)C1c1ccc(Cl)cc1` (some centres unmarked), the IC50 amounted to 1830 nM.

In the case of `CS(=O)(=O)c1ccccc1N1C(=O)C2(CCN(C(=O)Nc3cc(F)cc(F)c3)CC2)C1c1ccc(Cl)cc1` (centres unmarked), the IC50 was determined as 94 nM.

As for `O=C(NCc1ccccc1F)N1CCC2(CC1)C(=O)N(c1cccc(F)c1)C2c1ccc(Cl)cc1` (centres unmarked), the half-inhibitory concentration (IC50) turned out to be 269 nM.

For `C[C@H](NC(=O)N1CCC2(CC1)C(=O)N(c1ccccc1S(C)(=O)=O)C2c1ccc(Cl)cc1)c1ccc(F)cc1` (some centres unmarked), the IC50 came to 611 nM.

Take `CC[C@H](C)[C@H](NC(=O)N1CCC2(CC1)C(=O)N(c1cccc(F)c1)C2c1ccc(Cl)cc1)C(=O)NC` (some centres unmarked): the IC50 worked out at 182 nM.

As for `CC[C@H](C)[C@H](NC(=O)N1CCC2(CC1)C(=O)N(c1ccccc1S(C)(=O)=O)C2c1ccc(Cl)cc1)C(=O)OC` (some centres unmarked), the IC50 came to 109 nM.

Turning to `CC[C@H](C)[C@H](NC(=O)N1CCC2(CC1)C(=O)N(c1cccc(F)c1)C2c1ccc(Cl)cc1)C(N)=O` (some centres unmarked), the IC50 was 965 nM.

For `COC(=O)[C@H](C)NC(=O)N1CCC2(CC1)C(=O)N(c1cccc(F)c1)C2c1ccc(Cl)cc1` (some centres unmarked), the IC50 was 827 nM.

Consider `C[C@H](NC(=O)N1CCC2(CC1)C(=O)N(c1cncnc1)C2c1ccc(Cl)cc1)c1ccc(F)cc1` (some centres unmarked), for which the IC50 amounted to 2330 nM.

Take `CC(NC(=O)N1CCC2(CC1)C(=O)N(c1cccc(F)c1)C2c1ccc(Cl)cc1)c1ccccn1` (centres unmarked): the IC50 came out at 2170 nM.

On to `CC(NC(=O)N1CCC2(CC1)C(=O)N(c1cccc(F)c1)C2c1ccc(Cl)cc1)c1ccncc1` (centres unmarked), for which the IC50 amounted to 694 nM.

Take `CC(NC(=O)N1CCC2(CC1)C(=O)N(c1cccc(F)c1)C2c1ccc(Cl)cc1)c1cccnc1` (centres unmarked): the IC50 stood at 2460 nM.

For `O=C(NCc1ccccn1)N1CCC2(CC1)C(=O)N(c1cccc(F)c1)C2c1ccc(Cl)cc1` (centres unmarked), the IC50 is 1330 nM.

Consider `C[C@H](NC(=O)N1CCC2(CC1)C(=O)N(c1cncnc1)C2c1cccnc1)c1ccc(F)cc1` (some centres unmarked), for which the IC50 was found to be 2590 nM.

Regarding `CC[C@H](C)[C@H](NC(=O)N1CCC2(CC1)C(=O)N(c1cccc(F)c1)C2c1ccc(Cl)cc1)C(=O)OC` (single isomer, unassigned), the IC50 stood at 57 nM.

`N#Cc1cccc(NC(=O)N2CCC3(CC2)C(=O)N(c2cccc(F)c2)C3c2ccc(Cl)cc2)c1` (single isomer, unassigned): the IC50 turned out to be 183 nM.

With `O=C(Nc1cc(F)cc(F)c1)N1CCC2(CC1)C(=O)N(c1cccc(F)c1)C2c1ccc(Cl)cc1` (single isomer, unassigned), the IC50 was found to be 390 nM.

Take `O=C(Nc1cccc(C(F)(F)F)c1)N1CCC2(CC1)C(=O)N(c1ccc(F)c(Cl)c1)C2c1ccccn1` (centres unmarked) [drawing 560]: the IC50 was 4.33 nM.

Regarding `O=C(Nc1cccc(C(F)(F)F)c1)N1CCC2(CC1)C(=O)N(c1ccc(F)c(Cl)c1)C2c1ccccn1` (centres unmarked) [drawing 561], the IC50 was found to be 83 nM.

Take `O=C(Nc1cccc(C(F)(F)F)c1)N1CCC2(CC1)C(=O)N(c1cncc(Cl)c1)C2c1ccccn1` (centres unmarked) [drawing 562]: the IC50 worked out at 155 nM.

With `O=C(Nc1cccc(C(F)(F)F)c1)N1CCC2(CC1)C(=O)N(c1cccc(Cl)c1)C2c1ccccn1` (centres unmarked) [drawing 563], the IC50 came to 95.5 nM.

`O=C(Nc1cccc(C(F)(F)F)c1)N1CCC2(CC1)C(=O)N(c1cccc(Cl)c1)C2c1ccccn1` (centres unmarked) [drawing 564]: the IC50 stood at 19.5 nM.

On to `N#Cc1cc(F)cc(NC(=O)N2CCC3(CC2)C(=O)N(c2ccc(F)c(Cl)c2)C3c2ccccn2)c1` (centres unmarked) [drawing 565], for which the IC50 was found to be 17.5 nM.

Regarding `N#Cc1cccc(N2C(=O)C3(CCN(C(=O)Nc4cccc(C(F)(F)F)c4)CC3)C2c2ccccn2)c1` (centres unmarked) [drawing 567], the IC50 was 371 nM.

With `N#Cc1cccc(N2C(=O)C3(CCN(C(=O)Nc4cccc(C(F)(F)F)c4)CC3)C2c2ccccn2)c1` (centres unmarked) [drawing 568], the IC50 amounted to 51 nM.

For the origin of these results see patent US20080076751A1, “Azetidinone Derivatives and Methods of Use Thereof” (priority 2006, published 2008).
